According to PubChem BioAssay (NCI):
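Results reflect a 48-hour exposure of cells in 96-well plates to compound at five concentrations. At the TGI there is no net growth.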

Legend:
Test in all cases: NCI-60 cell line screen, 48 h
SK-OV-3 ovarian = tested on: SK-OV-3 ovarian
SK-MEL-28 melanoma = tested on: SK-MEL-28 melanoma
NCI-H23 lung = tested on: NCI-H23 lung
DLD-1 colon = tested on: DLD-1 colon
M19-MEL melanoma = tested on: M19-MEL melanoma
NCI-H226 lung = tested on: NCI-H226 lung
CCRF-CEM leukemia = tested on: CCRF-CEM leukemia
LXFL 529 NSCLC = tested on: LXFL 529 NSCLC
HOP-92 NSCLC = tested on: HOP-92 NSCLC
DMS 114 small cell lung = tested on: DMS 114 small cell lung
RPMI-8226 leukemia = tested on: RPMI-8226 leukemia
SR leukemia = tested on: SR leukemia
MOLT-4 leukemia = tested on: MOLT-4 leukemia
SNB-75 CNS = tested on: SNB-75 CNS
UACC-62 melanoma = tested on: UACC-62 melanoma
K-562 leukemia = tested on: K-562 leukemia
KM12 colon = tested on: KM12 colon
IGROV1 ovarian = tested on: IGROV1 ovarian
OVCAR-3 ovarian = tested on: OVCAR-3 ovarian
HOP-18 NSCLC = tested on: HOP-18 NSCLC
EKVX NSCLC = tested on: EKVX NSCLC
ACHN renal = tested on: ACHN renal
DMS 273 small cell lung = tested on: DMS 273 small cell lung
MALME-3M melanoma = tested on: MALME-3M melanoma
SF-539 CNS = tested on: SF-539 CNS
NCI-H522 lung = tested on: NCI-H522 lung
UACC-257 melanoma = tested on: UACC-257 melanoma
HCC-2998 colon = tested on: HCC-2998 colon
M14 melanoma = tested on: M14 melanoma
SNB-19 CNS = tested on: SNB-19 CNS
RXF 393 renal = tested on: RXF 393 renal
KM20L2 colon = tested on: KM20L2 colon
SF-295 CNS = tested on: SF-295 CNS
HCT-116 colon = tested on: HCT-116 colon
786-0 renal = tested on: 786-0 renal
A498 renal = tested on: A498 renal
A549 NSCLC = tested on: A549 NSCLC
NCI-H460 lung = tested on: NCI-H460 lung
SN12C renal = tested on: SN12C renal
HOP-62 NSCLC = tested on: HOP-62 NSCLC
CAKI-1 renal = tested on: CAKI-1 renal
SNB-78 CNS = tested on: SNB-78 CNS
OVCAR-4 ovarian = tested on: OVCAR-4 ovarian
SF-268 CNS = tested on: SF-268 CNS
OVCAR-8 ovarian = tested on: OVCAR-8 ovarian
OVCAR-5 ovarian = tested on: OVCAR-5 ovarian
SK-MEL-2 melanoma = tested on: SK-MEL-2 melanoma
SK-MEL-5 melanoma = tested on: SK-MEL-5 melanoma
COLO 205 colon = tested on: COLO 205 colon
HCT-15 colon = tested on: HCT-15 colon
UO-31 renal = tested on: UO-31 renal
HL-60(TB) leukemia = tested on: HL-60(TB) leukemia
HT29 colon = tested on: HT29 colon
SW-620 colon = tested on: SW-620 colon
U251 CNS = tested on: U251 CNS
TK-10 renal = tested on: TK-10 renal
LOX IMVI melanoma = tested on: LOX IMVI melanoma

Cc1ccccc1-n1c(=O)sc2c(=O)n(-c3ccccc3)c(=S)[nH]c21
TGI (SK-OV-3 ovarian): > 100 µM | TGI (SK-MEL-28 melanoma): > 100 µM | TGI (NCI-H23 lung): > 100 µM | TGI (DLD-1 colon): > 100 µM | TGI (M19-MEL melanoma): > 100 µM | TGI (NCI-H226 lung): > 100 µM | TGI (CCRF-CEM leukemia): > 100 µM | TGI (LXFL 529 NSCLC): > 100 µM | TGI (HOP-92 NSCLC): > 100 µM | TGI (DMS 114 small cell lung): > 100 µM | TGI (RPMI-8226 leukemia): > 100 µM | TGI (SR leukemia): > 100 µM | TGI (MOLT-4 leukemia): > 100 µM | TGI (SNB-75 CNS): > 100 µM | TGI (UACC-62 melanoma): > 100 µM | TGI (K-562 leukemia): > 100 µM | TGI (KM12 colon): > 100 µM | TGI (IGROV1 ovarian): > 100 µM | TGI (OVCAR-3 ovarian): > 100 µM | TGI (HOP-18 NSCLC): > 100 µM | TGI (EKVX NSCLC): > 100 µM | TGI (ACHN renal): > 100 µM | TGI (DMS 273 small cell lung): > 100 µM | TGI (MALME-3M melanoma): > 100 µM | TGI (SF-539 CNS): > 100 µM | TGI (NCI-H522 lung): > 100 µM | TGI (UACC-257 melanoma): > 100 µM | TGI (HCC-2998 colon): > 100 µM | TGI (M14 melanoma): > 100 µM | TGI (SNB-19 CNS): > 100 µM | TGI (RXF 393 renal): > 100 µM | TGI (KM20L2 colon): > 100 µM | TGI (SF-295 CNS): > 100 µM | TGI (HCT-116 colon): > 100 µM | TGI (786-0 renal): > 100 µM | TGI (A498 renal): > 100 µM | TGI (A549 NSCLC): > 100 µM | TGI (NCI-H460 lung): > 100 µM | TGI (SN12C renal): > 100 µM | TGI (HOP-62 NSCLC): > 100 µM | TGI (CAKI-1 renal): > 100 µM | TGI (SNB-78 CNS): > 100 µM | TGI (OVCAR-4 ovarian): > 100 µM | TGI (SF-268 CNS): > 100 µM | TGI (OVCAR-8 ovarian): > 100 µM | TGI (OVCAR-5 ovarian): > 100 µM | TGI (SK-MEL-2 melanoma): > 100 µM | TGI (SK-MEL-5 melanoma): > 100 µM | TGI (COLO 205 colon): > 100 µM | TGI (HCT-15 colon): > 100 µM | TGI (UO-31 renal): > 100 µM | TGI (HL-60(TB) leukemia): > 100 µM | TGI (HT29 colon): > 100 µM | TGI (SW-620 colon): > 100 µM | TGI (U251 CNS): > 100 µM

O=C1/C(=C/c2ccccc2)CN(C(=O)C(F)(F)F)C/C1=C\c1ccccc1
TGI (SK-MEL-28 melanoma): 3.45 µM | TGI (NCI-H23 lung): 4.52 µM | TGI (DLD-1 colon): 4.27 µM | TGI (M19-MEL melanoma): 3.1 µM | TGI (CCRF-CEM leukemia): 8.03 µM | TGI (LXFL 529 NSCLC): 3.26 µM | TGI (DMS 114 small cell lung): 3.33 µM | TGI (RPMI-8226 leukemia): 0.932 µM | TGI (SR leukemia): 5.48 µM | TGI (MOLT-4 leukemia): 79.6 µM | TGI (SNB-75 CNS): 19 µM | TGI (UACC-62 melanoma): 3.76 µM | TGI (K-562 leukemia): > 100 µM | TGI (KM12 colon): 3.98 µM | TGI (IGROV1 ovarian): 5.55 µM | TGI (OVCAR-3 ovarian): 10.7 µM | TGI (HOP-18 NSCLC): 18.4 µM | TGI (ACHN renal): 4.99 µM | TGI (DMS 273 small cell lung): 2.95 µM | TGI (MALME-3M melanoma): 15.9 µM | TGI (SF-539 CNS): 4.06 µM | TGI (NCI-H522 lung): 5.77 µM | TGI (UACC-257 melanoma): 3.32 µM | TGI (M14 melanoma): 3.29 µM | TGI (SNB-19 CNS): 14.8 µM | TGI (RXF 393 renal): 3.63 µM | TGI (KM20L2 colon): 4.34 µM | TGI (SF-295 CNS): 3.13 µM | TGI (HCT-116 colon): 1.08 µM | TGI (786-0 renal): 3.28 µM | TGI (A498 renal): 4.41 µM | TGI (A549 NSCLC): 12.1 µM | TGI (NCI-H460 lung): 2.97 µM | TGI (SN12C renal): 3.12 µM | TGI (HOP-62 NSCLC): 29.6 µM | TGI (SNB-78 CNS): 11.4 µM | TGI (OVCAR-4 ovarian): 4.72 µM | TGI (OVCAR-8 ovarian): 3.37 µM | TGI (OVCAR-5 ovarian): 8.37 µM | TGI (SK-MEL-2 melanoma): 23.1 µM | TGI (SK-MEL-5 melanoma): 3.26 µM | TGI (COLO 205 colon): 5.11 µM | TGI (TK-10 renal): 13.4 µM | TGI (HCT-15 colon): 5.33 µM | TGI (UO-31 renal): 4.77 µM | TGI (HL-60(TB) leukemia): 2.85 µM | TGI (HT29 colon): 3.01 µM | TGI (LOX IMVI melanoma): 2.5 µM | TGI (SW-620 colon): 1.83 µM | TGI (U251 CNS): 2.95 µM
